Laboratory results reported in ChEMBL document CHEMBL2177104, “Identification of antitubercular benzothiazinone compounds by ligand-based design” (J Med Chem, 2012).
Converted amounts (≈) assume the structure as drawn.

System: Mycobacterium tuberculosis
Experiment: Antimycobacterial activity against multidrug-resistant Mycobacterium tuberculosis 2745/09
Type: functional

Row | SMILES | MIC [µg/mL]
1 | CN(C(=O)CN1CCN(c2nc(=O)c3cc(C(F)(F)F)cc([N+](=O)[O-])c3s2)CC1)c1ccccc1 | 0.03 (≈ 0.0591 µM)
2 | O=c1nc(N2CCN(c3nccs3)CC2)sc2c([N+](=O)[O-])cc(C(F)(F)F)cc12 | ≤ 0.125
3 | O=c1nc(N2CCC(c3ccccc3)CC2)sc2c([N+](=O)[O-])cc(C(F)(F)F)cc12 | ≤ 0.0125
4 | O=c1nc(NCc2ccc3c(c2)OCCO3)sc2c([N+](=O)[O-])cc(C(F)(F)F)cc12 | 0.03 (≈ 0.0683 µM)
5 | Cc1ccc(CNc2nc(=O)c3cc(C(F)(F)F)cc([N+](=O)[O-])c3s2)n1C | ≤ 0.125
6 | C[C@H]1COC2(CCN(c3nc(=O)c4cc(C(F)(F)F)cc([N+](=O)[O-])c4s3)CC2)O1 [BTZ-043] | ≤ 0.015
7 | O=c1nc(N2CCC(F)(F)CC2)sc2c([N+](=O)[O-])cc(C(F)(F)F)cc12 | ≤ 0.125
8 | CN(C)c1ccc(CN(C)c2nc(=O)c3cc(C(F)(F)F)cc([N+](=O)[O-])c3s2)cc1 | 0.03 (≈ 0.0684 µM)
9 | COC(=O)C1CN(c2nc(=O)c3cc(C(F)(F)F)cc([N+](=O)[O-])c3s2)CCC12OC[C@H](C)O2 (some centres not stated) | > 0.1
10 | COC(=O)[C@@H]1OC2(CCN(c3nc(=O)c4cc(C(F)(F)F)cc([N+](=O)[O-])c4s3)CC2)O[C@H]1c1ccccc1 | > 0.03
11 | CCCOCC1COC2(CCN(c3nc(=O)c4cc(C(F)(F)F)cc([N+](=O)[O-])c4s3)CC2)O1 (configuration not stated) | ≤ 0.015
12 | CN(c1nc(=O)c2cc(C(F)(F)F)cc([N+](=O)[O-])c2s1)[C@H]1CCN(Cc2ccccc2)C1 | > 0.03
